Results: US20220193120A1, “MOLECULAR HYDROGEN-CONTAINING COMPOSITION FOR MAINTAINING LUNG FUNCTION IN HUMAN LUNG CANCER AND/OR IMPROVING REDUCTION IN LUNG FUNCTION ATTRIBUTED TO HUMAN LUNG CANCER” (MiZ Company Limited, priority 2020, published 2022)
Read-outs that look alike come from different tables or passages of the source.

Key:
[1] = tested on: lung function of subject having lung cancer
Procedure: On Oct. 21, 2020, inhalation of the hydrogen gas was started using a hydrogen gas generator (Jobs-α, hydrogen concentration: about 4% to 5%, the amount of 100% hydrogen to be generated: 200 ml/min) manufactured by MiZ Company Limited (Ofuna, Kamakura). […]

[2] = tested on: lung function of subject having lung cancer; conditions: one month from start of inhalation, hydrogen about 1% to 2%, 3 to 6 hours per day
Procedure: A person had surgery of colorectal cancer in 2018. Thereafter, the person was periodically examined for follow-up. […] From the day of examination, the person was treated with hydrogen gas inhalation for 3 to 6 hours per day using a hydrogen gas generator (Jobs-mini, hydrogen concentration: about 1% to 2%, the amount of 100% hydrogen to be generated: 30 ml/min).

Lewis Lung Carcinoma = conditions: inhalation of low concentration (3.5%) hydrogen; Japanese Patent No. 6781485, Example 1; cited from earlier work
[3] = room temperature, normal pressure; also printed as 1.6 mg/L; cited from earlier work
[4] = Week 2, hydrogen about 4% to 5%, at least 3 hours per day
[5] = Week 3, hydrogen about 4% to 5%, at least 3 hours per day

With `[HH]` [hydrogen gas, molecular hydrogen] the “tolerability of hydrogen gas inhalation” value ([1]; Week 1, inhalation 5 hours per day, hydrogen concentration about 4% to 5%, person stage IV lung cancer) was “inhaled comfortably with no discomfort”, the “amount of oxygen needed for oxygen inhalation” value [1, 4] was “reduced” and the breathing [1, 4] was “became easier”. For the same compound, the “lung X-ray image change” value [1, 4] was “any significant change was not observed”, the state of breathing [1, 4] was “became better” and the “amount of oxygen needed for oxygen inhalation” value [1, 5] was “reduced compared to that in the previous week”. For the same compound, the “complicating inflammation reaction such as colitis” value [1, 5] was “improved”, the “lung ventilatory function (doctors' determination from CT image and oxygen needed)” value [1, 5] was “improved compared to that one month ago” and the “shadows derived from pneumonia in chest CT image” value [1, 5] was “completely disappeared”. For the same compound, the breathing function [2] was “normal values again”, the lung capacity [2] was “normal values again” and the tumor markers [2] was “normal numeric values again”. For the same compound, the “lung cancer at pre-surgery examination” value ([2]; person) was “disappeared”, the metastasis (Lewis Lung Carcinoma) was “suppressed” and the “concentration of hydrogen dissolved in water” value [3] was “approximately 1.6 ppm”.
